These compounds were tested on HCV genotype 1a replicon cell line (APC89; Huh7.5 cell background) (assay: HCV Genotype 1a Replicon Assay (NS3-specific protease activity readout)). Conditions: Hepatitis C virus, 72 hour incubation, read-out: Genotype 1a (pEC50 class, HCV genotype 1a replicon assay) (converted).
Type: cell-based
Method: Assay 2: HCV Genotype 1a Replicon Assay
The HCV genotype 1a replicon cell line was obtained from Apath LLC (APC89; Huh7.5 cell background). This subgenomic replicon contains the N-terminus of the HCV core protein fused to the neomycin-resistance selectable marker. The EMCV IRES lies downstream and drives expression of the non-structural proteins NS3-NS5B. Compound potencies were determined using the NS3-specific protease activity in lysates as a measurement of compound inhibition of replicon levels.
(§1) Cells were grown at 37° C. in a 5% CO2 humidified incubator in DMEM (Invitrogen) with 10% FBS (HyClone), 1×NEAA (Invitrogen), 1× Pen-Strep (Invitrogen), and 850 μg/mL G418 (Invitrogen). On day 1 of the assay, cells were plated at 15,000 cells/well in black 96-well tissue culture plates (Costar) in 200 μL media lacking G418. Four hours later, once the cells had adhered, the media was removed and replaced with media (no G418) containing dose-responses of test compounds. Compounds were initially diluted in DMSO and then diluted another 200× in media to bring the final DMSO concentration down to 0.5%. The cells were incubated with test compounds for 48 or 72 hours. At the end of the incubation period, media and compound were removed from the plates.
To determine the NS3-specific protease activity in lysates, the cells were lysed at room temperature in 50 μL/well of 50 mM Hepes pH 7.5, 150 mM NaCl, 15% Glycerol, 0.15% Triton X-100, 10 mM DTT for 20 minutes with shaking. 50 μL of an NS3/4a protease-specific FRET substrate (Anaspec RET S1 Cat#22991) was then added to the wells at a final concentration of 15 μM. The plates were incubated at 37° C. for 20 minutes, which corresponds to a timepoint at which the protease activity is still in the linear phase. Protease activity was determined by measuring fluorescence (Excitation: 340 nm; Emission: 509 nm).
To analyze the data, the fluorescence was plotted vs. the compound concentration, and EC50 values were determined from a 4-parameter robust fit model using GraphPad Prism software.

Compared with `COC(=O)N[C@H](C(=O)N1CCC[C@H]1c1nc(-c2ccc(-c3ccc(NC(=O)c4ccc(N5CCN(C(=O)C6CC6)CC5)cc4)cc3)cc2)c[nH]1)C(C)C` [Example 1, {(S)-1-[(S)-2-(4-{4′-[4-(4-cyclopropanecarbonyl-piperazin-1-yl)-benzoylamino]-biphenyl-4-yl}-1H-imidazol-2-yl)-pyrrolidine-1-carbonyl]-2-methyl-propyl}-carbamic acid methyl ester], `CCOc1cc(NC(=O)c2ccc(N3CCN(C(=O)NC)C[C@H]3C)nc2)ccc1-c1ccc(-c2c[nH]c([C@@H]3CCCN3C(=O)[C@@H](NC(=O)OC)C(C)C)n2)cc1` [Example 23] is lower in EC50: 1 to 10 nM for the first, 0.1 to 1 nM for the second.

`CCOc1cc(NC(=O)c2ccc(N3CCN(C(=O)c4c[nH]cn4)C[C@H]3C)nc2)ccc1-c1ccc(-c2c[nH]c([C@@H]3CCCN3C(=O)[C@@H](NC(=O)OC)C(C)C)n2)cc1` [Example 24] and `COC(=O)N[C@H](C(=O)N1CCC[C@H]1c1nc(-c2ccc(-c3cc(OC)c(NC(=O)c4ccc(N5CCN(C(=O)c6c[nH]cn6)C[C@H]5C)nc4)cc3OC(F)(F)F)cc2)c[nH]1)C(C)C` [Example 27-29] fall in the same range of EC50: 0.1 to 1 nM for the first, 0.1 to 1 nM for the second.

`COC(=O)N[C@H](C(=O)N1CCC[C@H]1c1nc(-c2ccc(-c3cc(F)c(NC(=O)c4ccc(N5CCN(C(=O)[C@]6(C)CCCN6C(=O)OC(C)(C)C)C[C@H]5C)nc4)cc3OC(F)(F)F)cc2)c[nH]1)C(C)C` [Example 27-8] and `COC(=O)N[C@H](C(=O)N1CCC[C@H]1c1nc(-c2ccc(-c3cc(F)c(NC(=O)c4ccc(N5CCN(C(=O)[C@]6(C)CCCN6C(=O)[C@H](C)O)C[C@H]5C)nc4)cc3OC(F)(F)F)cc2)c[nH]1)C(C)C` [Example 27-49] cannot be ordered by EC50: under 0.1 nM for the first, under 0.1 nM for the second.

Compared with `COC(=O)N[C@H](C(=O)N1CCC[C@H]1c1nc(-c2ccc(-c3cc(F)c(NC(=O)c4ccc(N5CCN(C(=O)[C@]6(C)CCCN6)C[C@H]5C)nc4)cc3OC(F)(F)F)cc2)c[nH]1)C(C)C` [Example 27-9], `COC(=O)N[C@H](C(=O)N1CCC[C@H]1c1nc(-c2ccc(-c3cc(F)c(NC(=O)c4ccc(N5CCN(C(=O)NC(C)C)C[C@H]5C)nc4)cc3OC(F)(F)F)cc2)c[nH]1)C(C)C` [Example 27-39] is lower in EC50: 1 to 10 nM for the first, 0.1 to 1 nM for the second.

`CNC(=O)N1CCN(c2ccc(C(=O)Nc3cc(OC(F)(F)F)c(-c4ccc(-c5c[nH]c([C@@H]6CCCN6C(=O)[C@@H](NC(=O)OC)C(C)C)n5)cc4)cc3OC)cn2)[C@H](C)C1` [Example 27-32] and `COC(=O)N[C@H](C(=O)N1CCC[C@H]1c1nc(-c2ccc(-c3cc(F)c(NC(=O)c4ccc(N5CCN(C(=O)NC6CC6)C[C@H]5C)nc4)cc3OC(F)(F)F)cc2)c[nH]1)C(C)C` [Example 27-40] fall in the same range of EC50: 0.1 to 1 nM for the first, 0.1 to 1 nM for the second.

First: COC(=O)N[C@H](C(=O)N1CCC[C@H]1c1nc(-c2ccc(-c3cc(F)c(NC(=O)c4ccc(N5CCN(C(=O)c6ncccn6)C[C@H]5C)nc4)cc3OC(F)(F)F)cc2)c[nH]1)C(C)C [Example 27-35]
Second: COC(=O)N[C@H](C(=O)N1CCC[C@H]1c1nc(-c2ccc(-c3cc(Cl)c(NC(=O)c4ccc(N5CCN(C(=O)c6c[nH]cn6)C[C@H]5C)nc4)cc3OC(F)(F)F)cc2)c[nH]1)C(C)C [Example 27-66]
The EC50 of the first is higher: 0.1 to 1 nM for the first, under 0.1 nM for the second.

`COC(=O)N[C@H](C(=O)N1CCC[C@H]1c1nc(-c2ccc(-c3cc(Cl)c(NC(=O)c4ccc(N5CCN(C(=O)[C@]6(C)CCCN6C(=O)c6c[nH]cn6)C[C@H]5C)nc4)cc3OC(F)(F)F)cc2)c[nH]1)C(C)C` [Example 27-71] and `COC(=O)N[C@H](C(=O)N1CCC[C@H]1c1nc(-c2ccc(-c3cc(Cl)c(NC(=O)c4ccc(N5CCN(C(=O)[C@]6(C)CCCN6C(=O)CO)C[C@H]5C)nc4)cc3OC(F)(F)F)cc2)c[nH]1)C(C)C` [Example 27-76] cannot be ordered by EC50: under 0.1 nM for the first, under 0.1 nM for the second.

`COCCNC(=O)N1CCC[C@@]1(C)C(=O)N1CCN(c2ccc(C(=O)Nc3cc(OC(F)(F)F)c(-c4ccc(-c5c[nH]c([C@@H]6CCCN6C(=O)[C@@H](NC(=O)OC)C(C)C)n5)cc4)cc3Cl)cn2)[C@H](C)C1` [Example 27-74] and `COCCNC(=O)N1CCC[C@@]1(C)C(=O)N1C[C@@H](C)N(c2ccc(C(=O)Nc3cc(OC(F)(F)F)c(-c4ccc(-c5c[nH]c([C@@H]6CCCN6C(=O)[C@@H](NC(=O)OC)C(C)C)n5)cc4)cc3Cl)cn2)C[C@@H]1C` [Example 28-43] cannot be ordered by EC50: under 0.1 nM for the first, under 0.1 nM for the second.

`COC(=O)N[C@H](C(=O)N1CCC[C@H]1c1nc(-c2ccc(-c3cc(Cl)c(NC(=O)c4ccc(N5CCN(C(=O)[C@]6(C)CCCN6C(=O)[C@@H](N)C(C)C)C[C@H]5C)nc4)cc3OC(F)(F)F)cc2)c[nH]1)C(C)C` [Example 27-75] and `COC(=O)N[C@H](C(=O)N1CCC[C@H]1c1nc(-c2ccc(-c3cc(Cl)c(NC(=O)c4ccc(N5C[C@H](C)N(C(=O)[C@]6(C)CCCN6C(=O)CN(C)C)C[C@H]5C)nc4)cc3OC(F)(F)F)cc2)c[nH]1)C(C)C` [Example 28-41] cannot be ordered by EC50: under 0.1 nM for the first, under 0.1 nM for the second.

Compared with `CNC(=O)C1CCC[C@@]1(C)C(=O)N1C[C@@H](C)N(c2ccc(C(=O)Nc3cc(OC(F)(F)F)c(-c4ccc(-c5c[nH]c([C@@H]6CCCN6C(=O)[C@@H](NC(=O)OC)C(C)C)n5)cc4)cc3Cl)cn2)C[C@@H]1C` (some centres unmarked) [Example 28-42], `CNC(=O)N1C[C@@H](C)N(c2ccc(C(=O)Nc3ccc(-c4ccc(-c5c[nH]c([C@@H]6CCCN6C(=O)[C@@H](NC(=O)OC)C(C)C)n5)cc4)nc3C)cn2)C[C@@H]1C` [Example 74] is higher in EC50: under 0.1 nM for the first, 1 to 10 nM for the second.

`COC(=O)N[C@H](C(=O)N1CCC[C@H]1c1nc(-c2ccc(-c3ccc(C(=O)Nc4ccc(N5CCN(C(=O)[C@]6(C)CCCN6C(=O)[C@@H](NC(=O)OC)C(C)O)C[C@H]5C)nc4)cc3OC(F)(F)F)cc2)c[nH]1)C(C)C` (some centres unmarked) [Example 67] and `COC(=O)N[C@H](C(=O)N1CCC[C@H]1c1nc(-c2ccc(-c3ccc(C(=O)Nc4ccc(N5CCN(C(=O)[C@]6(C)CCCN6C(=O)[C@@H](NC(=O)OC)C(C)(C)C)C[C@H]5C)nc4)cc3OC(F)(F)F)cc2)c[nH]1)C(C)C` [Example 70] fall in the same range of EC50: 0.1 to 1 nM for the first, 0.1 to 1 nM for the second.

`COC(=O)N[C@H](C(=O)N1CCC[C@H]1c1nc(-c2ccc(-c3ccc(NC(=O)c4ccc(N5C[C@H](C)N(C(=O)C6CC6)C[C@H]5C)nc4)c(C)n3)cc2)c[nH]1)C(C)C` [Example 73] and `COC(=O)N[C@H](C(=O)N1CCC[C@H]1c1nc(-c2ccc(-c3ccc(NC(=O)c4ccc(N5C[C@H](C)N(C(=O)c6c[nH]cn6)C[C@H]5C)nc4)c(C)n3)cc2)c[nH]1)C(C)C` [Example 75] fall in the same range of EC50: 1 to 10 nM for the first, 1 to 10 nM for the second.

`COC(=O)N[C@H](C(=O)N1CCC[C@H]1c1nc(-c2ccc(-c3ccc(NC(=O)c4ccc(N5CCN(C(=O)[C@H]6CC6(C)C)C[C@H]5C)nc4)cc3OC(F)(F)F)nc2)c[nH]1)C(C)C` [Example 76, {(S)-1-[(S)-2-(4-{6-[4-({6-[(R)-4-((S)-2,2-Dimethyl-cyclopropanecarbonyl)-2-methyl-piperazin-1-yl]-pyridine-3-carbonyl}-amino)-trifluoromethoxyphenyl]-pyridin-3-yl}-1H-imidazol-2-yl)-pyrrolidine-1-carbonyl]-2-methyl-propyl}-carbamic acid methyl ester] was tested, and the EC50 was 0.1 to 1 nM.

What follows are compounds tested on HCV genotype 1b replicon cell line (APC144; Huh7 cell background) (assay: HCV Genotype 1b Replicon Assay (Renilla luciferase readout)). Conditions: Hepatitis C virus, Huh-7; read-out: Genotype 1b (pEC50 class, HCV genotype 1b replicon assay) (converted).
Type: cell-based
Description: Assay 1: HCV Genotype 1b Replicon Assay
The HCV genotype 1b replicon cell line was obtained from Apath LLC (Brooklyn, N.Y.) (APC144; Huh7 cell background). This subgenomic replicon contains the N-terminus of the HCV core protein fused to the neomycin-resistance selectable marker. The EMCV IRES lies downstream and drives expression of humanized Renilla luciferase fused to the non-structural proteins NS3-NS5B. This cell line was used to determine compound potency using the luciferase activity readout as a measurement of compound inhibition of replicon levels.
as §1, with “500” for “850”, “10,000” for “15,000”, “white” for “black”, “have” for “had”, “48” for “48 or 72”, “plates and the luciferase activity was determined using Promega Renilla-Glo reagents.” for “plates.”
To analyze the data, the luciferase activity was plotted vs. the compound concentration, and EC50 values were determined from a 4-parameter robust fit model with the GraphPad Prism software package (GraphPad Software, Inc., San Diego, Calif.). Results are expressed as the negative decadic logarithm of the EC50 value, pEC50.
Test compounds having a higher pEC50 value in this assay show greater inhibition of HCV genotype 1b replication.

Work on `COC(=O)N[C@H](C(=O)N1CCC[C@H]1c1nc(-c2ccc(-c3ccc(NC(=O)c4ccc(N5CCN(C(=O)C6CC6)CC5)cc4)cc3)cc2)c[nH]1)C(C)C` [Example 1, {(S)-1-[(S)-2-(4-{4′-[4-(4-cyclopropanecarbonyl-piperazin-1-yl)-benzoylamino]-biphenyl-4-yl}-1H-imidazol-2-yl)-pyrrolidine-1-carbonyl]-2-methyl-propyl}-carbamic acid methyl ester] yielded an EC50 of under 0.1 nM.

From patent publication US8921372B2, “Inhibitors of hepatitis C virus” (Theravance Biopharma R&D IP, LLC, priority 2010, dated 2014)
